The subject of one series is A549 cells. The experiment in a line: Anti-proliferative activity, cell-counting kit-8 assay, A549. The class given is cell-based. The settings on record: CCK-8. How it is done: (§1) Cell Assay of EGFR Activity
(§2) The anti-proliferative activity was determined using cell-counting kit-8 assay (Dojindo, Japan). H358 and A549 cells lines were seeded at a density of 8000 cells/well and 3000 cells/well respectively in 96-well microtiter plates and were incubated at 37° C. overnight in a humidified incubator containing 5% CO2. Cells were dosed with compounds at final concentrations ranging from 0.025 to 80 μM in each well of the plate. Three groups were set up, including compound group to be tested, blank control group, positive control group (gefitinib).
(§3) The 96-well plate was incubated in cell incubator for 72 hours. The culture fluid was then removed and 100 μl/well of PBS buffer was added. 10 μl/well of CCK-8 solution was added and the assay plate was incubated in the cell incubator for 1 hour. Cell survival was determined by measuring the absorbance at 470 nm using a microplate reader. A calibration curve was prepared using the average data of the 4 wells for each concentration that contain the number of viable cells to determine the IC50 of the target compounds.

The next series deals with EGFR (WT) (Homo sapiens (Human), UniProt P00533). Put plainly: Kinase-Glo luminescent kinase assay, EGFR tyrosine kinase inhibitory activity (WT). The settings on record: EGFR wild type. The class given is biochemical. How it is done:
(§4) Determination of the Compound Inhibitory Activity Against EGFR Kinase
(§5) The inhibitory activity of compounds in formula (I) and (II) were determined using Kinase-Glo luminescent kinase assay. The receptor tyrosine kinase EGFR was tested and Gefitinib, a known EGFR inhibitor, was chosen as the positive control compound. The method is detailed below:
(§6) The sample compounds were dissolved in DMSO and diluted it to 500 μM concentration with DMSO and transferred to a dose plate. The compounds were serially diluted with DMSO in 5 fold concentration. Then each concentration was diluted 10-fold with the reaction buffer to get a 10× final concentration. Transfer the compounds with concentrations ranging from 0.003 μM to 50 μM to EGFR assay plate to determine their kinase activity with a dose of 1 μL/well.
(§7) The positive control compound Gifitinib was dissolved in DMSO as 10 mM stock solution and diluted it to 100 μM concentration with DMSO. The control compound was serially diluted with DMSO in 5 fold concentration. Then each concentration was diluted 10-fold with the reaction buffer to get a 10× final concentration.
(§8) For the HPE (hundred percent effect: No kinase and no compound, but containing ATP, substrate and 1% DMSO) and ZPE (zero percent effect: No compound but containing kinase, ATP, substrate and 1% DMSO) wells, dilute 2 μL DMSO 10-fold with reaction buffer to obtain 10% DMSO solution. Then transfer it to the assay plat, 1 μL/well. The positive control wells contain kinase, ATP, substrate and positive control compound in different concentrations. The sample compound wells contain kinase, ATP, substrate and the compounds to be tested in different concentrations.
(§9) Preparation of the reagents in need: 4×ATP: dilute ATP 4 times with assay buffer to obtain a working solution; 4× substrate: dilute Poly ([…]: tyrosine) 4 times with assay buffer to obtain a working solution; 2.5×EGFR kinase: dilute EGFR kinase 2.5 times with assay buffer to obtain a working solution.
(§10) Kinase reaction: Add 10× compounds to the assay plate in a 384-well plate layout, 1 μL/well. For the HPE and ZPE wells, equal volume (1 μL/well) of 10% DMSO was added to the 384-well assay plate; Add 2.5×EGFR kinase into the assay plate in 384-well plate layout, 4 μL/well. For HPE and ZPE wells, an equal volume (4 μL/well) of assay buffer was added to the 384-well assay plate; Centrifuge the assay plate with 1000 rpm for 1 min to mix them; Pre-incubate the assay plate for 30 min at 30° C.; Mix equal volume of 4×ATP and 4× substrate to obtain 2×ATP-substrate mixture which serves as a reaction mixture for the determination of EGFR activity; Add 2×ATP-substrate mixture to the assay plate, 5 μL/well; Centrifuge the assay plate at 1000 rpm for 1 min to mix them; Incubate the assay plate for one hour at 30° C.; Add Kinase glo plus was to each well (10 μL/well), and then incubated the assay plate for 20 min at 27° C.; Read luminescence signal with Envision plate reader.

For the next series, the system named is H358 cells. The experiment in a line: Anti-proliferative activity, cell-counting kit-8 assay, H358. The settings on record: CCK-8. The class given is cell-based. The protocol: as §1, §2, §3
The next series concerns the target EGFR (T790M) (Homo sapiens (Human), UniProt P00533, T790M). Put plainly: Kinase-Glo luminescent kinase assay, EGFR tyrosine kinase inhibitory activity (T790M). The class given is biochemical. The protocol: as §4, §5, §6, §7, §8, §9, §10
For series [1] the following is noted: in vivo; cited from earlier work.

Structures are written as SMILES.

EGFR (T790M), sequence (P00533 25-1210 T790M): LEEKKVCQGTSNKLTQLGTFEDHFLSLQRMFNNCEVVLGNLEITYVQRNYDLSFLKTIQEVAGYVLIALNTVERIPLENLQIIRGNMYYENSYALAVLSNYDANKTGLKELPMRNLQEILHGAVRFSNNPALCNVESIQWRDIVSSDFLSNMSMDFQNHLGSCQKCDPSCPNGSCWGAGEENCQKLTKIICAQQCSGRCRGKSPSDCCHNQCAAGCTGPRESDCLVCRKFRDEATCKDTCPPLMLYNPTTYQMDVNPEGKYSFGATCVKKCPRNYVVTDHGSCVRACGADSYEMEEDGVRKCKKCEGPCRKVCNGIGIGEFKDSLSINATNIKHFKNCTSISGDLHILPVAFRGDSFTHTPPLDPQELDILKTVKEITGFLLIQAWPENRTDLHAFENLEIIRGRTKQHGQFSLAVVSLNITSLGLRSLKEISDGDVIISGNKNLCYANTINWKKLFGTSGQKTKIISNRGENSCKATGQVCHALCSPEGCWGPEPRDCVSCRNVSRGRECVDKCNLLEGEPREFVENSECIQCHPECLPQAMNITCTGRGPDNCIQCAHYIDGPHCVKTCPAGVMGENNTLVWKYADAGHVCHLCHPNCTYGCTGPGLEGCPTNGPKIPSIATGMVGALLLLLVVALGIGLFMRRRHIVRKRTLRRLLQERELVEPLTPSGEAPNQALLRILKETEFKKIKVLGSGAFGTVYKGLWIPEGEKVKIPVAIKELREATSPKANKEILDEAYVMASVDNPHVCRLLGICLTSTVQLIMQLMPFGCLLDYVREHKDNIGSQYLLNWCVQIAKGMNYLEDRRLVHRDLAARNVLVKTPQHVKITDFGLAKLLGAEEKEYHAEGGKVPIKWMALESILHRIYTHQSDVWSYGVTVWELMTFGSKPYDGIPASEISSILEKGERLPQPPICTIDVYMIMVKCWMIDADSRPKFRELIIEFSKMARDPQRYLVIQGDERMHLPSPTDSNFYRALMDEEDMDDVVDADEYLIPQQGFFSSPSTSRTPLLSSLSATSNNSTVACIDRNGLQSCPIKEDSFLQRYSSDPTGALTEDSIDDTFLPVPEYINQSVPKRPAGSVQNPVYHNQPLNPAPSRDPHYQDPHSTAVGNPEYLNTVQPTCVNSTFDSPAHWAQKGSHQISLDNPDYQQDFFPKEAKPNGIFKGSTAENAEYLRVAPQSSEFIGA
EGFR (WT), sequence (P00533 25-1210): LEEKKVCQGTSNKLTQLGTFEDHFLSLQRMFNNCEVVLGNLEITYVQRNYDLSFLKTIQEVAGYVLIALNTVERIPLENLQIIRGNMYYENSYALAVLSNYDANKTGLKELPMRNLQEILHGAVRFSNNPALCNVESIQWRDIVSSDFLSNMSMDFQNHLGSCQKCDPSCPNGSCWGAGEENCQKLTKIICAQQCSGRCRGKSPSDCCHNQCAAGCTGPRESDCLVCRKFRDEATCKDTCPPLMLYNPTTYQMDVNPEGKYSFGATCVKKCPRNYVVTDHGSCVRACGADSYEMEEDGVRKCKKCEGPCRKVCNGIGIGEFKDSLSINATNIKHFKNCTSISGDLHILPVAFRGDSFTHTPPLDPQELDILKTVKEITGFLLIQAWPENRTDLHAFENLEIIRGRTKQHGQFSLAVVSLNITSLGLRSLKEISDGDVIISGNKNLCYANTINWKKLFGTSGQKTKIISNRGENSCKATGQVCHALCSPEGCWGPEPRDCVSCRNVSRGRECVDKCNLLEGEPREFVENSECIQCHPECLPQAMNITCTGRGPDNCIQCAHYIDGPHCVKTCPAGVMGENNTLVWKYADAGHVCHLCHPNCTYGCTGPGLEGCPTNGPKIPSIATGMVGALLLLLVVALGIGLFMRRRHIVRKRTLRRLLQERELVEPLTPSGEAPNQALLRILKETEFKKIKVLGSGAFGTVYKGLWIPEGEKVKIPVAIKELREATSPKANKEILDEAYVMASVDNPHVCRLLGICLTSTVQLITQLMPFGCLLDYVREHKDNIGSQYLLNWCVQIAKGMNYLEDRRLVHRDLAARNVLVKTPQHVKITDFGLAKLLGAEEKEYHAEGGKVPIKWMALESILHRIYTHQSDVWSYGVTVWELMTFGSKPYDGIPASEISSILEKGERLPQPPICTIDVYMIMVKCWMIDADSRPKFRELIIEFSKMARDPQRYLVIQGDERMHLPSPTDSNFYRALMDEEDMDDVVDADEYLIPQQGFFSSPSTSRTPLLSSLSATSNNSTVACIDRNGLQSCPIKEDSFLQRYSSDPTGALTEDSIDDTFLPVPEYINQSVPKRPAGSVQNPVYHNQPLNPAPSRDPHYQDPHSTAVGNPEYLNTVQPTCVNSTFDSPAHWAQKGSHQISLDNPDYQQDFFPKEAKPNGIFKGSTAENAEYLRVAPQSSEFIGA

On to `C#Cc1cccc(Nc2ncnc3cc(OC4CCOC4)c4c(c23)OCCO4)c1` (centres unmarked) [Compound I-24, N-(3-Ethynylphenyl)-5-(tetrahydrofuran-3-yloxy)-23-dihydro-[1,4]dioxino[2,3-f]quinazolin-10-amine], for which the IC50 in the series on A549 cells (Homo sapiens, A549, 72 h) was 9.69 µM; against EGFR (WT) it was < 0.05 µM; with H358 cells (Homo sapiens, NCI-H358, 72 h), 8.58 µM; on EGFR (T790M), < 0.3 µM.

With `O=C1COc2cc3ncnc(Nc4ccc(F)c(Cl)c4)c3cc2N1CCCN1CCOCC1` [II-2, 4-((3-Chloro-4-fluorophenyl)amino)-6-(3-morpholinopropyl)-6H-[1,4]oxazino[3,2-g]quinazolin-7(8H)-one], the IC50 was 5.58 µM in the series with A549 cells (Homo sapiens, A549, 72 h); < 0.2 µM at EGFR (WT); 13.5 µM in the series with H358 cells (Homo sapiens, NCI-H358, 72 h); < 1 µM against EGFR (T790M).

Take `C#Cc1cccc(Nc2ncnc3cc(OCC)c4c(c23)OCCO4)c1` [Compound I-35, 5-Ethoxy-N-(3-ethynylphenyl)-2,3-dihydro-[1,4]dioxino[2,3-f]quinazolin-10-amine]: the IC50 is 10.5 µM with A549 cells (Homo sapiens, A549, 72 h); < 0.05 µM against EGFR (WT); 8.89 µM in the series on H358 cells (Homo sapiens, NCI-H358, 72 h); < 0.05 µM on EGFR (T790M).

On to `C#Cc1cccc(Nc2ncnc3cc(OC(C)C)c4c(c23)OCCO4)c1` [Compound I-8, N-(3-Ethynylphenyl)-5-isopropoxy-2,3-dihydro-[1,4]dioxino[2,3-f]quinazolin-10-amine], for which the IC50 with A549 cells (Homo sapiens, A549, 72 h) was 6.08 µM; against EGFR (WT) it was < 0.05 µM; in the series on H358 cells (Homo sapiens, NCI-H358, 72 h), 5.54 µM; at EGFR (T790M), < 0.05 µM.

As to `Fc1cc(Nc2ncnc3cc(OC4CCOCC4)c4c(c23)OCCO4)ccc1Cl` [Compound I-22, N-(4-Chloro-3-fluorophenyl)-5-(tetrahydro-2H-pyran-4-yloxy)-2,3-dihydro-[1,4]dioxino[2,3-f]-quinazolin-10-amine], the IC50 with A549 cells (Homo sapiens, A549, 72 h) is > 20 µM; on EGFR (WT), < 0.1 µM; with H358 cells (Homo sapiens, NCI-H358, 72 h) it was > 20 µM; at EGFR (T790M), < 1 µM.

On to `COCC(C)Oc1cc2ncnc(Nc3ccc(F)c(Cl)c3)c2c2c1OCCO2` (centres unmarked) [Compound I-25, N-(3-Chloro-4-fluorophenyl)-5-(1-methoxypropan-2-yloxy)-2,3-dihydro-[1,4]dioxino[2,3-H]quinazolin-10-amine], for which the IC50 with A549 cells (Homo sapiens, A549, 72 h) was 10.4 µM; in the series with H358 cells (Homo sapiens, NCI-H358, 72 h) it was 10.6 µM.

For `O=C1COc2cc3ncnc(Nc4ccc(F)c(Cl)c4)c3cc2N1CCCN1CCOCC1` [II-1, 4-((3-Chloro-4-fluorophenyl)amino)-6-(3-morpholinopropyl)-6H-[1,4]oxazino[3,2-g]quinazolin-7(8H)-one], the IC50 is 7.51 µM in the series with A549 cells (72 hours), < 0.05 µM against EGFR (WT), 13.5 µM in the series with H358 cells (72 hours) and < 0.3 µM against EGFR (T790M).

As to `C#Cc1cccc(Nc2ncnc3cc(OCCOC)c(OCCOC)cc23)c1` [erlotinib, Erlotinib], the oral bioavailability in series [1] is recorded as 80%.

As to `C#Cc1cccc(Nc2ncnc3cc(OCC4CCCO4)c4c(c23)OCCO4)c1` (centres unmarked) [Compound I-41, N-(3-Ethynylphenyl)-5-((tetrahydrofuran-2-yl)methoxy)-2,3-dihydro-[1,4]dioxino[2,3-f]quinazolin-10-amine], the IC50 is 11.5 µM with A549 cells (Homo sapiens, A549, 72 h); < 0.05 µM at EGFR (WT); 9.51 µM in the series with H358 cells (Homo sapiens, NCI-H358, 72 h); < 0.1 µM against EGFR (T790M).

Turning to `Fc1cc(Nc2ncnc3cc(OC4CCOC4)c4c(c23)OCCO4)ccc1Cl` (centres unmarked) [Compound I-23, N-(4-Chloro-3-fluorophenyl)-5-(tetrahydrofuran-3-yloxy)-2,3-dihydro-[1,4]dioxino[2,3-f]quinazolin-10-amine], the IC50 was 15.1 µM in the series on A549 cells (Homo sapiens, A549, 72 h); < 0.05 µM on EGFR (WT); 13 µM with H358 cells (Homo sapiens, NCI-H358, 72 h); < 0.1 µM against EGFR (T790M).

On to `CCOc1cc2ncnc(Nc3cccc(OC)c3)c2c2c1OCCO2` [Compound I-36, 5-Ethoxy-N-(3-methoxyphenyl)-2,3-dihydro-[1,4]dioxino[2,3-f]quinazolin-10-amine], for which the IC50 was 12 µM in the series with A549 cells (Homo sapiens, A549, 72 h); < 0.05 µM against EGFR (WT); 7.41 µM with H358 cells (Homo sapiens, NCI-H358, 72 h); < 0.05 µM at EGFR (T790M).

Consider `CCOc1cc2ncnc(Nc3ccc(C)c(Cl)c3)c2c2c1OCCO2` [Compound I-37, N-(3-Chloro-4-methylphenyl)-5-ethoxy-2,3-dihydro-[1,4]dioxino[2,3-f]quinazolin-10-amine], for which the IC50 is 12.1 µM in the series on A549 cells (Homo sapiens, A549, 72 h); < 0.05 µM against EGFR (WT); 11.6 µM with H358 cells (Homo sapiens, NCI-H358, 72 h); < 0.05 µM against EGFR (T790M).

As for `CCOC(C)Oc1cc2ncnc(Nc3ccc(F)c([N+](=O)[O-])c3)c2c2c1OCCO2` (centres unmarked) [Compound I-16, 5-(1-Ethoxyethoxy)-N-(4-fluoro-3-nitrophenyl)-2,3-dihydro-[1,4]dioxino[2,3-f]quinazolin-10-amine], the IC50 in the series with A549 cells (Homo sapiens, A549, 72 h) was 17.5 µM; at EGFR (WT), < 0.3 µM; in the series on H358 cells (Homo sapiens, NCI-H358, 72 h), 17.5 µM; on EGFR (T790M), < 0.3 µM.

For `CCOc1cc2ncnc(Nc3ccc(C)cc3)c2c2c1OCCO2` [Compound I-39, 5-Ethoxy-N-p-tolyl-2,3-dihydro-[1,4]dioxino[2,3-f]quinazolin-10-amine], the IC50 with A549 cells (Homo sapiens, A549, 72 h) was 10.2 µM; on EGFR (WT) it was < 0.05 µM; in the series on H358 cells (Homo sapiens, NCI-H358, 72 h), 6.1 µM; against EGFR (T790M) it was < 0.1 µM.

With `COCCOc1cc2ncnc(Nc3cccc(OC)c3)c2c2c1OCCO2` [Compound I-33, 5-(2-Methoxyethoxy)-N-(3-methoxyphenyl)-2,3-dihydro-[1,4]dioxino[2,3-f]quinazolin-10-amine], the IC50 was 12.1 µM in the series with A549 cells (Homo sapiens, A549, 72 h); < 0.2 µM at EGFR (WT); 9.64 µM in the series on H358 cells (Homo sapiens, NCI-H358, 72 h); < 1 µM at EGFR (T790M).

In the case of `C#Cc1cccc(Nc2ncnc3cc(OC4CCOCC4)c4c(c23)OCCO4)c1` [Compound I-21, N-(3-Ethynylphenyl)-5-(tetrahydro-2H-pyran-4-yloxy)-2,3-dihydro-[1,4]dioxino[2,3-f]quinazolin-10-amine], the IC50 in the series on A549 cells (Homo sapiens, A549, 72 h) is 6.42 µM; against EGFR (WT), < 0.1 µM; in the series on H358 cells (Homo sapiens, NCI-H358, 72 h), 1.47 µM; against EGFR (T790M) it was < 1 µM.

Take `COCCOc1cc2ncnc(Nc3ccc(F)c(Cl)c3)c2c2c1OCCO2` [Compound I-30, N-(3-Chloro-4-fluorophenyl)-5-(2-methoxyethoxy)-2,3-dihydro-[1,4]dioxino[2,3-f]quinazolin-10-amine]: the IC50 was 13.9 µM in the series with A549 cells (Homo sapiens, A549, 72 h); < 0.05 µM at EGFR (WT); 5.93 µM with H358 cells (Homo sapiens, NCI-H358, 72 h); < 0.05 µM against EGFR (T790M).

On to `CC(C)Oc1cc2ncnc(Nc3ccc(F)c(Cl)c3)c2c2c1OCCO2` [Compound I-7, N-(3-Chloro-4-fluorophenyl)-5-isopropoxy-2,3-dihydro-[1,4]dioxino[2,3-f]quinazolin-10-amine], for which the IC50 in the series on A549 cells (Homo sapiens, A549, 72 h) was 11.6 µM; against EGFR (WT), < 0.05 µM; with H358 cells (Homo sapiens, NCI-H358, 72 h), 6.92 µM; at EGFR (T790M) it was < 0.05 µM.

Consider `COc1cc2ncnc(Nc3ccc(F)c(Cl)c3)c2c2c1OCCO2` [Compound I-29, N-(3-Chloro-4-fluorophenyl)-5-methoxy-2,3-dihydro-[1,4]dioxino[2,3-f]quinazolin-10-amine], for which the concentration for half-maximal inhibition (IC50) against EGFR (WT) is < 0.05 µM; on EGFR (T790M), < 1 µM.

Take `C#Cc1cccc(Nc2ncnc3cc(OCCOC)c4c(c23)OCCO4)c1` [Compound I-31, N-(3-Ethynylphenyl)-5-(2-methoxyethoxy)-2,3-dihydro-[1,4]dioxino[2,3-f]quinazolin-10-amine]: the IC50 at EGFR (WT) and at EGFR (T790M) was < 0.05 µM throughout.
